Measurements taken from patent US20130122541A1, “MICROORGANISM PRODUCTION OF HIGH-VALUE CHEMICAL PRODUCTS, AND RELATED COMPOSITIONS, METHODS AND SYSTEMS” (The Regents of the University of Colorado, priority 2010, published 2013).
≈ marks a conversion by molar mass, not a printed value. Like-named read-outs stand apart in the source and are kept apart here.

Legend:
[1] = system: E. coli; assay: microbe, parasite or virus in culture; type: cell-based; details: for % Increase Over Control: anaerobic; for MIC: Escherichia coli
Protocol: (§1) For MIC evaluations, the final results are expressed in chemical agent concentrations determined by analysis of the stock solution by HPLC (i.e., see Subsection IIIb).
The minimum inhibitory concentration (MIC) was determined anaerobically in a 96 well-plate format. […] Media supplements were added according to levels reported in the Supplements Table, where specified. Overnight cultures of strains were grown in triplicate in 5 mL LB (with antibiotic where appropriate). A 1% (v/v) inoculum was introduced into a 5 ml culture of M9 minimal media.

[2] = system: B. subtilis; assay: MIC evaluation of 3-HP, B. subtilis aerobic, M9 media + glutamate, 96 well-plate, 24 h (Common Methods); type: cell-based
Protocol: as §1
The minimum inhibitory concentration (MIC) was determined aerobically in a 96 well-plate format. […] Media supplements were added according to levels reported in the Supplements Table where specified. Overnight cultures of strains were grown in triplicate in 5 mL LB (with antibiotic where appropriate). A 1% (v/v) inoculum was introduced into a 5 ml culture of M9 minimal media+glutamate.

[3] = strain BSX_0003.0 (pWH1520), M9 + glu + trp + 1 mM Xylose

## O=C(O)CCO [3-HP, 3-hydroxypropionic acid]
[1]; BW25113, EZ Rich media vs M9 control
  % Increase Over Control: 150%
[1]; BW25113, read-out: MIC Assay Result (g/L 3-HP), BW25113, EZ Rich media, supplements none, anaerobic
  MIC: 75 g/L (≈ 833 mM)
[1]; BW25113, read-out: MIC Assay Result (g/L 3-HP), BW25113, M9, supplements none (control), anaerobic
  MIC: 30 g/L (≈ 333 mM)
[1]; BW25113, read-out: MIC Assay Result (g/L 3-HP), anaerobic, strain BX_00002.0: BW25113 wild type, pKK223-mcs1 (control), M9 + Amp (100 μg/mL)
  MIC: 15 g/L
[1]; BW25113, read-out: MIC Assay Result (g/L 3-HP), anaerobic, strain BX_00003.0: BW25113 wild type, pBT-3 (control), M9 + Cm (20 μg/mL)
  MIC: 15 g/L
[1]; BW25113, read-out: MIC Assay Result (g/L 3-HP), anaerobic, strain BX_00118.0: BW25113 wild type, pJ251 (control), M9 + Kan (20 μg/mL)
  MIC: 15 g/L
[1]; BW25113, read-out: MIC Assay Result (g/L 3-HP), anaerobic, strain BX_00138.0: BW25113 wild type, pSmart-LC-Kan (control), M9 + Kan (20 μg/mLl)
  MIC: 25 g/L
[1]; BW25113, read-out: MIC Assay Result (g/L 3-HP), anaerobic, strain BX_00144.0: BW25113 wild type, pSmart-HC-Amp (control), M9 + Amp (100 μg/mL)
  MIC: 25 g/L
[1]; BW25113, read-out: MIC Assay Result (g/L 3-HP), anaerobic, strain BX_00319.0: BW25113 wild type, pK223-aroH, M9 + Amp 100 μg/mL + 1 mM IPTG
  MIC: 20 g/L
[1]; BW25113, read-out: MIC Assay Result (g/L 3-HP), anaerobic, strain BX_00320.0: BW25113 wild type, pK223-metE C645A, M9 + Amp 100 μg/mL + 1 mM IPTG
  MIC: 20 g/L
[1]; BW25113, read-out: MIC Assay Result (g/L 3-HP), anaerobic, strain BX_00322.0: BW25113 wild type, pJ61-speFED, M9 + Kan 20 μg/mL
  MIC: 25 g/L
[1]; BW25113, read-out: MIC Assay Result (g/L 3-HP), anaerobic, strain BX_00323.0: BW25113 wild type, pJ61-aroG, M9 + Kan 20 μg/mL
  MIC: 20 g/L
[1]; BW25113, read-out: MIC Assay Result (g/L 3-HP), anaerobic, strain BX_00324.0: BW25113 wild type, pJ61-thrA, M9 + Kan 20 μg/mL
  MIC: 20 g/L
[1]; BW25113, read-out: MIC Assay Result (g/L 3-HP), anaerobic, strain BX_00325.0: BW25113 wild type, pJ61-asd, M9 + Kan 20 μg/mL
  MIC: 20 g/L
[1]; BW25113, read-out: MIC Assay Result (g/L 3-HP), anaerobic, strain BX_00326.0: BW25113 wild type, pJ61-ilvA, M9 + Kan 20 μg/mL
  MIC: 20 g/L
[1]; BW25113, read-out: MIC Assay Result (g/L 3-HP), anaerobic, strain BX_00327.0: BW25113 wild type, pJ61-cysM, M9 + Kan 20 μg/mL
  MIC: 20 g/L
[1]; BW25113, read-out: MIC Assay Result (g/L 3-HP), anaerobic, strain BX_00357.0: BW25113 wild type, pKK223-aroH*445, M9 + Amp 100 μg/mL + 1 mM IPTG
  MIC: 20 g/L
[1]; BW25113, read-out: MIC Assay Result (g/L 3-HP), anaerobic, strain BX_00358.0: BW25113 wild type, pKK223-aroH*447, M9 + Amp 100 μg/mL + 1 mM IPTG
  MIC: 20 g/L
[1]; BW25113, read-out: MIC Assay Result (g/L 3-HP), anaerobic, strain BX_00359.0: BW25113 wild type, pKK223-aroH*457, M9 + Amp 100 μg/mL + 1 mM IPTG
  MIC: 20 g/L
[1]; BW25113, read-out: MIC Assay Result (g/L 3-HP), anaerobic, strain BX_00360.0: BW25113 wild type, pACYC177 (Kan only)-cynTS, M9 + Kan 20 μg/mL
  MIC: 20 g/L
[1]; BW25113, read-out: MIC Assay Result (g/L 3-HP), anaerobic, strain BX_00362.0: BW25113 wild type, pACYC177 (Kan only)-aroH, M9 + Kan 20 μg/mL + 1 mM IPTG
  MIC: 20 g/L
[1]; BW25113, read-out: MIC Assay Result (g/L 3-HP), anaerobic, strain BX_00363.0: BW25113 wild type, pACYC177 (Kan only)-speB, M9 + Kan 20 μg/mL
  MIC: 20 g/L
[1]; BW25113, read-out: MIC Assay Result (g/L 3-HP), anaerobic, strain BX_00364.0: BW25113 wild type, pACYC177 (Kan only)-metE, M9 + Kan 20 μg/mL + 1 mM IPTG
  MIC: 20 g/L
[1]; BW25113, read-out: MIC Assay Result (g/L 3-HP), anaerobic, strain BX_00365.0: BW25113 wild type, pACYC177 (Kan only)-metC, M9 + Kan 20 μg/mL
  MIC: 20 g/L
[1]; BW25113, read-out: MIC Assay Result (g/L 3-HP), anaerobic, strain BX_00368.0: BW25113 wild type, pBT-3-cynTS, M9 + Cm (20 μg/mL)
  MIC: 20 g/L
[1]; BW25113, read-out: MIC Assay Result (g/L 3-HP), anaerobic, strain BX_00426.0: BW25113 ΔnrdR::frt, pSmart-HC-Amp-cadA, M9 + Amp (100 μg/mL)
  MIC: 26.7 g/L
[1]; strain BX_00311.0 (pSmart-LC-Kan-glyA-ORF)
  % Increase Over Control: 20%
[1]; strain BX_00319.0 (pK223-aroH)
  % Increase Over Control: 33%
[1]; strain BX_00320.0 (pK223-metE C645A)
  % Increase Over Control: 33%
[1]; strain BX_00321.0 (pK223-ct-his-thrA)
  % Increase Over Control: 33%
[1]; strain BX_00322.0 (pJ61-speFED)
  % Increase Over Control: 67%
[1]; strain BX_00323.0 (pJ61-aroG)
  % Increase Over Control: 33%
[1]; strain BX_00324.0 (pJ61-thrA)
  % Increase Over Control: 33%
[1]; strain BX_00325.0 (pJ61-asd)
  % Increase Over Control: 33%
[1]; strain BX_00326.0 (pJ61-ilvA)
  % Increase Over Control: 33%
[1]; strain BX_00327.0 (pJ61-cysM)
  % Increase Over Control: 33%
[1]; strain BX_00357.0 (pKK223-aroH*445)
  % Increase Over Control: 33%
[1]; strain BX_00358.0 (pKK223-aroH*447)
  % Increase Over Control: 33%
[1]; strain BX_00359.0 (pKK223-aroH*457)
  % Increase Over Control: 33%
[1]; strain BX_00360.0 (pACYC177 (Kan only)-cynTS)
  % Increase Over Control: 33%
[1]; strain BX_00362.0 (pACYC177 (Kan only)-aroH)
  % Increase Over Control: 33%
[1]; strain BX_00363.0 (pACYC177 (Kan only)-speB)
  % Increase Over Control: 33%
[1]; strain BX_00364.0 (pACYC177 (Kan only)-metE)
  % Increase Over Control: 33%
[1]; strain BX_00365.0 (pACYC177 (Kan only)-metC)
  % Increase Over Control: 33%
[1]; strain BX_00368.0 (pBT-3-cynTS)
  % Increase Over Control: 33%
[1]; strain BX_00426.0 (ΔnrdR::frt, pSmart-HC-Amp-cadA)
  % Increase Over Control: 7%
[2]; B. subtilis 168, M9 + glu + trp, supplements none (control)
  % Increase Over Control: 0%
[2]; [3]
  % Increase Over Control: 0%
  Avg 24 hr ΔOD600: 0.00
[2]; strain BSX_0011.0 (pWH1520-Pxyl:speB region), M9 + glu + trp + 1 mM Xylose
  Avg 24 hr ΔOD600: 0.07
[2]; strain BSX_0015.0 (pWH1520-Pxyl:metE region), M9 + glu + trp + 1 mM Xylose
  Avg 24 hr ΔOD600: 0.06
